# From patent publication US9757408B2 (Hayashibara Co., Ltd., priority 2010, dated 2017)
# Marks after values point to notes of the source that are not given here.
# Key:
# [1] = tested on: VCAM-1 expression in HUVEC cells; assay: Expression of cell-adhesion factor VCAM-1 on HUVEC cells, fluorescent intensity (Experiment 6-3); type: cell-based, human; conditions: LPS 10 μg/mL, IL-1β, IFN-γ
# Method: Thereafter, the supernatant in each well was removed by suction, and the cells were washed twice with PBS, followed by adding 4% paraformaldehyde to the cells and allowing them to stand at ambient temperature for one hour to fix them. After the fixation, the cells were washed thrice with PBS, followed by adding PBS containing 1% BSA and 0.05% NaN3 in an amount of 150 μL/well, and subjecting the cells to blocking at 4° C. overnight. […] Thereafter, the cells were washed four times with PBS, adding an HRPO-labeled streptavidin (“Streptavidin HRP Conjugate”, a product name of Invitrogen Corporation, CA, USA), which had been diluted with PBS containing 3% BSA by 1,000 times, in an amount of 100 μL/well and allowing the cells to stand at ambient temperature for one hour. Finally, the cells were washed four times with PBS, allowed to develop color for 10 min with “QuantaBlue™ Fluorogenic Peroxidase Substrate”, commercialized by Pierce Biotechnology, IL, USA, and determined the cells' fluorescent intensity at a wavelength of 325 to 420 nm. […] The results are in Table 6 in parallel.
# [2] = tested on: TNF-α production of HUVEC cells; assay: TNF-α production of HUVEC cells, LPS/IL-1β/IFN-γ (Experiment 6-1); type: cell-based, human; conditions: for TNF-α Concentration: HUVEC, LPS 10 μg/mL, IL-1β, IFN-γ; for IC50: Homo sapiens, LPS in the coexistence of IL-1β and IFN-γ, read-out: IC50 against production inhibition of TNF-α
# From the text: The results are in Table 6 in parallel.
# [3] = tested on: BALB/c mice; assay: Safeness of injection preparations, i.v. once a day for seven days (Example 2); type: in vivo; conditions: mouse, in vivo, iv
# Method: The safeness of the preparations prepared in the above was evaluated.
# [4] = tested on: lipopolysaccharide (LPS)-induced endotoxin shock mice; assay: LPS-induced endotoxin shock mice, survival, ANO i.v. simultaneously with LPS (Experiment 1); type: in vivo, BALB/c mice; conditions: LPS 15 mg/kg i.p.; for Survival rate (%) of mice, 7 Hours: 7 hours after LPS; for Survival rate (%) of mice, 19 Hours: 19 hours after LPS; for Survival rate (%) of mice, 26 Hours: 26 hours after LPS; for Survival rate (%) of mice, 43 Hours: 43 hours after LPS
# Method: USA, which had been dissolved in phosphate buffered saline (PBS) (Experiment groups 1 to 3). […] To the remaining five heads of another one group were intravenously administered with 0.2 mL/head of PBS simultaneously with the LPS administration (Experiment group 1). For each group, the survival number of mice was macroscopically observed up to 7 to 43 hours after the LPS administration, and based on this, the survival rate was determined for each group. The survival rate (%) of mice for each group was calculated by dividing the survival number of mice at each observation time with the survival number of mice at the initiation of this experiment, and multiplying the obtained value by 100.
# [5] = tested on: TNF-α in serum of mice administered with LPS; assay: Serum TNF-α in LPS-administered mice, ANO i.v. (Experiment 7); type: in vivo, BALB/c mice; conditions: LPS 18 mg/kg i.p., serum two hours after LPS
# Method: More specifically, 18 BALB/c female mice, 9-week-old, commercialized by Japan Charles River, Tokyo, Japan, were randomly divided into three groups, six heads each. An LPS specimen derived from E. coli (055:B5), commercialized by Sigma-Aldrich Corporation, St. Louis, Mo. USA, was dissolved in physiological saline and intraperitoneally administered to all the 6 mice in respective three groups at a dose of 18 mg/kg body weight of LPS (Experiment groups 1 to 3). […] To the six mice of the remaining one group was intravenously administered PBS in a liquid volume of 0.2 mL/head simultaneously with the administration of LPS (Experiment group 1).
# For the mice in each group, they were collected blood at two hours after the LPS administration, followed by assaying the level of TNF-α, IL-6, IL-10, and IL-12 in each serum and averaging the data for each group. For the assay of the level of TNF-α, the same ELISA as in Experiment 2 was used and for the assay of the level of IL-6, the same ELISA as in Experiment 3 was used. […]
# [6] = tested on: TNF-α production from mouse intraperitoneal macrophages; assay: TNF-α production from mouse intraperitoneal macrophages, LPS + IFN-γ, ELISA (Experiment 2); type: cell-based; conditions: for TNF-α Concentration: LPS 2 μg/mL, IFN-γ 10 IU/mL
# Method: The resulting cell suspension was added to a dish for tissue culture (product code: 353003, commercialized by Becton Drive Franklin Lakes, N.J., USA), and incubated in a 5% v/v CO2 incubator at 37° C. for 1.5 hours to attach the peritoneal exudate macrophages on the surface of the dish.
# TNF-α in each collected supernatant was assayed with enzyme-linked immunosorbent assay (ELISA) (Experiment groups 2 to 5). […] The results are in Table 2 in parallel. The test for each Experiment group was conducted by using three wells. The assay for TNF-α was conducted on an ELISA using a commercialized rat anti-mouse TNF-α antibody (“Rat anti-mouse/rat TNF antibody” (product code: 551225), a product name of Becton Drive Franklin Lakes, N.J., USA) as a solid phase antibody; a commercialized biotin-labeled rat anti-mouse TNF-α antibody (“Biotin-Labeled Rat Anti-Mouse TNF Antibody”, product code: 554415, commercialized by Becton Drive Franklin Lakes, N.J., USA) as a secondary antibody; and an HRPO-labeled streptavidin.
smiles,measurement,setting,value
"Nc1ncnc2c1ncn2[C@@H]1O[C@H](CO)[C@@H](O)[C@H]1O [AN, adenosine]",Amount of expressed VCAM-1,[1]; test substance 1 μM,"3,824"
same,Amount of expressed VCAM-1,[1]; test substance 2 μM,"3,957"
same,Amount of expressed VCAM-1,[1]; test substance 5 μM,"3,609**"
same,Amount of expressed VCAM-1,[1]; test substance 10 μM,"2,823**"
same,TNF-α Concentration,[2]; test substance 1 μM,53 pg/mL
same,TNF-α Concentration,[2]; test substance 2 μM,49.2 pg/mL
same,TNF-α Concentration,[2]; test substance 5 μM,40.3 pg/mL
same,TNF-α Concentration,[2]; test substance 10 μM,31.1** pg/mL
same,IC50,[2]; HUVEC cells,15.2 µM
"Nc1c2ncn([C@@H]3O[C@H](CO)[C@@H](O)[C@H]3O)c2nc[n+]1[O-] [ANO, adenosine N1-oxide]",change in body weight and other appearance versus PBS,[3],no significant change
same,clinical laboratory test results that provide indices of renal and liver functions versus PBS,[3],no difference
same,Amount of expressed VCAM-1,[1]; test substance 0.2 μM,"4,123"
same,Amount of expressed VCAM-1,[1]; test substance 0.5 μM,"4,052"
same,Amount of expressed VCAM-1,[1]; test substance 1 μM,"3,920"
same,Amount of expressed VCAM-1,[1]; test substance 2 μM,"3,967"
same,Amount of expressed VCAM-1,[1]; test substance 5 μM,"3,603*"
same,Amount of expressed VCAM-1,[1]; test substance 10 μM,"2,823**"
same,TNF-α production inhibitory action stronger than that of adenosine,"[2]; HUVEC cells, comparison of IC50",about 16 times
same,TNF-α Concentration,[2]; test substance 0.2 μM,51 pg/mL
same,TNF-α Concentration,[2]; test substance 0.5 μM,41.1 pg/mL
same,TNF-α Concentration,[2]; test substance 1 μM,25.1** pg/mL
same,TNF-α Concentration,[2]; test substance 2 μM,12.3** pg/mL
same,TNF-α Concentration,[2]; test substance 5 μM,1.8** pg/mL
same,IC50,[2]; HUVEC cells,0.97 µM
same,"Survival rate (%) of mice, 7 Hours",[4]; ANO 15 mg/kg body weight i.v.,100%
same,"Survival rate (%) of mice, 19 Hours",[4]; ANO 15 mg/kg body weight i.v.,100%
same,"Survival rate (%) of mice, 26 Hours",[4]; ANO 15 mg/kg body weight i.v.,80%
same,"Survival rate (%) of mice, 43 Hours",[4]; ANO 15 mg/kg body weight i.v.,80%
same,"Survival rate (%) of mice, 7 Hours",[4]; ANO 45 mg/kg body weight i.v.,100%
same,"Survival rate (%) of mice, 19 Hours",[4]; ANO 45 mg/kg body weight i.v.,100%
same,"Survival rate (%) of mice, 26 Hours",[4]; ANO 45 mg/kg body weight i.v.,100%
same,"Survival rate (%) of mice, 43 Hours",[4]; ANO 45 mg/kg body weight i.v.,80%
same,TNF-α Concentration,[5]; ANO 68 mg/kg i.v.,109** pg/mL
same,TNF-α Concentration,[5]; ANO 135 mg/kg i.v.,46** pg/mL
same,TNF-α Concentration,[6]; ANO 0.006 μM,1573 pg/mL
same,TNF-α Concentration,[6]; ANO 0.031 μM,1637 pg/mL
same,TNF-α Concentration,[6]; ANO 0.063 μM,1136 pg/mL
same,TNF-α Concentration,[6]; ANO 0.313 μM,545 pg/mL
same,concentration range in which the production of TNF-α was significantly inhibited,"[6]; mouse intraperitoneal macrophages, LPS and IFN-γ",≥ 0.063 µM
